Columns and labels:
[1] = test system: MIN6 cells; assay: Secondary screening: oxidative stress (H2O2)-derived cell death suppression, MIN6 cells; format: cell-based, mouse; design: key to oxidative stress-derived cell death inhibitory effect (class symbol): 一: 細胞死抑制効果無し; +: その中間程度の抑制効果を有する; ++: ダントロ レンの細胞死抑制効果と同程度; settings: H2O2 66 μM, 24 h; for oxidative stress-derived cell death inhibitory effect, compared with N-acetylcysteine (NAC): NAC 1000 μM
[2] = test system: MIN6 cells; assay: Intracellular protein synthesis by metabolic labeling (35S-Met), MIN6 cells; format: cell-based, mouse; settings: incubated for more than 24 hours
[3] = test system: heme-oxygenase 1 (HO-1); assay: HO-1 expression by Northern blot, MIN6 cells; format: cell-based, mouse
[4] = test system: CHOP; assay: CHOP expression by Northern blot, MIN6 cells; format: cell-based, mouse
[5] = test system: XBP1; assay: XBP1 activation by RT-PCR, MIN6 cells; format: cell-based, mouse
[6] = test system: GRP78; assay: GRP78 expression by Northern blot, MIN6 cells; format: cell-based, mouse
[7] = test system: kidney (proximal) tubule cells; assay: Third screening: mouse endoplasmic reticulum stress model (tunicamycin), kidney tubules, HE and TUNEL; format: in vivo; settings: 10 mg/kg/day intraperitoneal daily for 4 days before tunicamycin 1 mg/kg
[8] = test system: rat Parkinson disease model; settings: cited from earlier work
[9] = other models; cited from earlier work
[10] = Patent Document 1 (JP 2005-247728); cited from earlier work
[11] = pre-administration from 24 h before H2O2 and simultaneous administration

With `COc1ccc(-c2cc(=O)c3c(OC)c(OC)c(OC)c(OC)c3o2)cc1` [IN19, tangeretin] the “oxidative stress-derived cell death inhibitory effect, compared with N-acetylcysteine (NAC)” value [1] was “効果はやや小さかった”, the “oxidative stress-derived cell death inhibitory effect, compared with α-tocopherol and β-carotene” value [1, 11] was “同程度の効果が認められた” and the “intracellular protein synthesis (decreased to)” value [2] was “about 60%”. The “expression of heme-oxygenase 1 (HO-1)” value [3] was “also increased”, the “expression of CHOP” value [4] was “also increased” and the “activation of XBP1” value [5] was “involves administration of IN19”. The “expression of GRP78” value [6] was “at least not increased”, the “tissue damage in renal tubules” value ([7]; kidney on day 4 after tunicamycin) was “ほぼ完全に抑制された” and the “cell death in renal tubules” value ([7]; kidney on day 4 after tunicamycin (TUNEL)) was “ほぼ完全に抑制された”. The neuroprotective activity [8] was “neuroprotective”.
In the case of `O=c1cc(-c2ccccc2)oc2ccccc12` [flavone], the “oxidative stress-derived cell death inhibitory effect, compared with N-acetylcysteine (NAC)” value [1] is reported as “効果はやや小さかった” and the “oxidative stress-derived cell death inhibitory effect, compared with α-tocopherol and β-carotene” value [1, 11] is reported as “同程度の効果が認められた”.
For `COc1ccc(-c2cc(=O)c3c(OC)c(OC)c(OC)c(OC)c3o2)cc1OC` [IN69, nobiletin], the “oxidative stress-derived cell death inhibitory effect (class symbol)” value [1, 11] is given as “士” and the neuroprotective activity [9] is given as “neuroprotective”.
For `CCCCCC=CCC=CCCCCCCCC(=O)OCC(COP(=O)(O)OCCN)OC(=O)CCCCCCCC=CCC=CCCCCC` (stereo not drawn) [ジリノレオイルホスファチジルエタノールァミン, dilinoleoylphosphatidylethanolamine], the “cell death induction suppressing activity” value [10] is listed as “細胞死誘導抑制活性” and the “endoplasmic reticulum stress suppressing activity” value [10] is listed as “小胞体ストレス抑制活性”.
With `COc1ccc(-c2cc(=O)c3c(OC)c(OC)c(OC)cc3o2)cc1OC` [IN88, sinensetin] the “oxidative stress-derived cell death inhibitory effect, compared with N-acetylcysteine (NAC)” value [1] was “効果はやや小さかった” and the “oxidative stress-derived cell death inhibitory effect, compared with α-tocopherol and β-carotene” value [1, 11] was “同程度の効果が認められた”.

From patent WO2007139036A1, “Compound for controlling endoplasmic reticulum stress, and pharmaceutical composition comprising the compound as active ingredient” (Meiji Dairies Corp, priority 2006, dated 2007)
